From US20250136633A1, “TELOMERE-TARGETING PHOSPHATIDYL-THIO CONJUGATES” (MAIA BIOTECHNOLOGY, INC., priority 2023, published 2025)
pEC50: −log10 of the molar value.

Columns and labels:
[1] = test system: HT29 Colorectal Carcinoma Cells (CRC); test: In vitro anticancer activity (cytotoxicity) of phosphatidyl-THIO conjugates in HT29 cells; assay type: cell-based; conditions: for pEC50: Homo sapiens, HT 29 CRC cells; for anticancer (cytotoxic) activity, in words: in vitro, comparison among the phosphatidyl conjugates and with the free pharmacophores
Experimental: The in vitro activity of Phosphatidyl-THIO conjugates were tested in HT29 Colorectal Carcinoma Cells (CRC) (Table 2)
Anticancer activity of the one or more phosphatidyl-THIO conjugate compounds disclosed herein, was evaluated in vitro in various cancer cell lines, according to commonly used procedures for assessment of compounds cytotoxicity, as out lined in the following publications: Mender, I., Gryaznov, S., Dikmen, Z. G., Wright, W. E., & Shay, J. W. (2015). Induction of telomere dysfunction mediated by the telomerase substrate precursor 6-thio-2′-deoxyguanosine. Cancer Discovery, 5, 82-95; Mender et al., (2020). Telomere Stress Potentiates STING-Dependent Anti-tumor Immunity. Cancer Cell, 38, 400-411.

cancer cells = test: Induction of telomere dysfunction-induced foci (TIF) and micronuclei in cancer cells; assay type: cell-based; conditions: treatment of cancer cells; data not shown

| Structure (SMILES) | pEC50 [1] | induction of telomere dysfunction-induced foci (TIF)-positive cells and micronuclei formation (cancer cells) | anticancer (cytotoxic) activity, in words [1] |
| --- | --- | --- | --- |
| CCCCCCCCCCCCCC(=O)OC[C@H](COP(=O)(O)OC[C@H]1O[C@@H](n2cnc3c(=S)[nH]c(N)nc32)C[C@@H]1O)OC(=O)CCCCCCCCCCCCC [Compound C14-6SdG, 5′-(1,2-dimyristoyl-sn-glycero-3-phospho)-6-thio-2′-deoxyguanosine] | 6.31 | – | – |
| CCCCCCCC(=O)OC[C@H](COP(=O)(O)OC[C@H]1O[C@@H](n2cnc3c(=S)[nH]c(N)nc32)C[C@@H]1O)OC(=O)CCCCCCC [Compound C8-6SdG, 5′-(1,2-dioctanoyl-sn-glycero-3-phospho)-6-thio-2′-deoxyguanosine] | 6.46 | – | – |
| CCCCCCCC(=O)OC[C@H](COP(=O)(O)OC[C@H]1O[C@@H](n2cnc3c(=S)[nH]c(N)nc32)[C@H](O)[C@@H]1O)OC(=O)CCCCCCC [Compound C8-6SriboG, 5′-(1,2-dioctanoyl-sn-glycero-3-phospho)-6-thio-guanosine] | 6.59 | – | – |
| CCCCCC(=O)OC[C@H](COP(=O)(O)OC[C@H]1O[C@@H](n2cnc3c(=S)[nH]c(N)nc32)C[C@@H]1O)OC(=O)CCCCC [Compound C6-6SdG, 5′-(1,2-dihexanoyl-sn-glycero-3-phospho)-6-thio-2′-deoxyguanosine] | 7.10 | efficient induction | – |
| CCCCCCCCCCCCCCCCCC(=O)OC[C@H](COP(=O)(O)OC[C@H]1O[C@@H](n2cnc3c(=S)[nH]c(N)nc32)C[C@@H]1O)OC(=O)CCCCCCCCCCCCCCCCC [Compound C18-6SdG, 5′-(1,2-distearoyl-sn-glycero-3-phospho)-6-thio-2′-deoxyguanosine] | 4.91 | – | least active |
| Nc1nc2c(ncn2[C@H]2C[C@H](O)[C@@H](CO)O2)c(=S)[nH]1 [Compound 6-thio-dG, 6-thio-2′-deoxyguanosine, reference compound] | 6.70 | – | – |
| CCCCCCCC/C=C\CCCCCCCC(=O)OC[C@H](COP(=O)(O)OC[C@H]1O[C@@H](n2cnc3c(=S)[nH]c(N)nc32)C[C@@H]1O)OC(=O)CCCCCCC/C=C\CCCCCCCC [C18:01-6SdG, 5′-(1,2-dioleoyl-sn-glycero-3-phospho)-6-thio-2′-deoxyguanosine] | 6.34 | – | essentially recovered cytotoxic activity |
| CCCCCC(=O)OC[C@H](COP(=O)(O)OC[C@H]1O[C@@H](n2cnc3c(=S)[nH]c(N)nc32)[C@H](O)[C@@H]1O)OC(=O)CCCCC [Compound C6-6SriboG, 5′-(1,2-dihexanoyl-sn-glycero-3-phospho)-6-thio-guanosine] | 6.70 | – | – |
| CCCC(=O)OC[C@H](COP(=O)(O)OC[C@H]1O[C@@H](n2cnc3c(=S)[nH]c(N)nc32)C[C@@H]1O)OC(=O)CCC [Compound C4-6SdG, 5′-(1,2-dibutyryl-sn-glycero-3-phospho)-6-thio-2′-deoxyguanosine] | 6.59 | – | – |
| CCCCCCCCCCCC(=O)OC[C@H](COP(=O)(O)OC[C@H]1O[C@@H](n2cnc3c(=S)[nH]c(N)nc32)[C@H](O)[C@@H]1O)OC(=O)CCCCCCCCCCC [Compound C12-6SriboG, 5′-(1,2-dilauroyl-sn-glycero-3-phospho)-6-thio-guanosine] | 6.22 | – | – |
| CCCCCCCCCCCC(=O)OC[C@H](COP(=O)(O)OC[C@H]1O[C@@H](n2cnc3c(=S)[nH]c(N)nc32)C[C@@H]1O)OC(=O)CCCCCCCCCCC [Compound C12-6SdG, 5′-(1,2-dilauroyl-sn-glycero-3-phospho)-6-thio-2′-deoxyguanosine] | 6.32 | – | – |
